Measurements as given in US9980943B2, “Methods of treating muscular dystrophy” (BOARD OF REGENTS OF THE NEVADA SYSTEM OF HIGHER EDUCATION, …, priority 2013, dated 2018).

What was measured:
Assay type in all cases: cell-based, mouse
[1] = tested on: α7 integrin (LacZ reporter in α7βgal+/− myoblasts); assay: Myoblast α7+/LacZ integrin FDG assay (Burkin assay in myoblasts, 96-well); conditions: α7+/LacZ myoblasts, 96-well
[2] = tested on: α7 integrin (LacZ reporter in α7+/LacZ myotubes); assay: Myotube α7 integrin FDG assay (Burkin assay in myotubes, 96-well); conditions: myotubes
[3] = tested on: β-galactosidase in CMV-LacZ C2C12 myotubes; assay: CMV-LacZ secondary screen in C2C12 myotubes (β-Gal stabilizing assay); conditions: for CMV-LACZ in Myotubes (β-galactosidase activity relative to DMSO): CMV-LacZ C2C12 myotubes, 96-well format
Method in brief: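 Dose-response runs at 0.5–40 μM (0.5, 1, 5, 10, 20, 40 μM; N=2 per point) used a clonal C2C12 line carrying CMV-LacZ. Cells were assayed as myoblasts or as differentiated myotubes, and β-galactosidase levels were read with the FDG fluorogenic substrate.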

[4] = 5 uM, C2C12 CMV-LacZ myotubes, fold relative to DMSO
[5] = 10 uM, C2C12 CMV-LacZ myotubes, fold relative to DMSO
[6] = 20 uM, C2C12 CMV-LacZ myotubes, fold relative to DMSO
[7] = 40 uM, C2C12 CMV-LacZ myotubes, fold relative to DMSO

SMILES | Burkin Assay in Myoblasts, value relative to DMSO ([1]; 0.5 uM) | Burkin Assay in Myoblasts, value relative to DMSO ([1]; 1 uM) | Burkin Assay in Myoblasts, value relative to DMSO ([1]; 5 uM) | Burkin Assay in Myoblasts, value relative to DMSO ([1]; 10 uM) | Burkin Assay in Myoblasts, value relative to DMSO ([1]; 20 uM) | Burkin Assay in Myoblasts, value relative to DMSO ([1]; 40 uM) | Burkin Assay in Myotubes (signal relative to DMSO) ([2]; 0.5 uM) | Burkin Assay in Myotubes (signal relative to DMSO) ([2]; 1 uM) | Burkin Assay in Myotubes (signal relative to DMSO) ([2]; 5 uM) | Burkin Assay in Myotubes (signal relative to DMSO) ([2]; 10 uM) | Burkin Assay in Myotubes (signal relative to DMSO) ([2]; 20 uM) | Burkin Assay in Myotubes (signal relative to DMSO) ([2]; 40 uM) | CMV-LACZ in Myotubes, signal relative to DMSO [3, 4] | CMV-LACZ in Myotubes, signal relative to DMSO [3, 5] | CMV-LACZ in Myotubes, signal relative to DMSO [3, 6] | CMV-LACZ in Myotubes, signal relative to DMSO [3, 7] | other results
COC(=O)Cc1c(O)ccn(Cc2ccc3c(c2)OCO3)c1=O [MLS000721525-01] | 1.086 | 1.086 | 0.9834 | 1.01 | 0.9936 | 0.985 | 0.6646 | 0.9136 | 0.6693 | 0.9806 | 0.8968 | 1.047 | 0.866 | 1.036 | 0.8409 | 0.9127 | –
COc1ccccc1N(C(=O)CNC(=O)c1ccco1)C(C(=O)NC1CCCCC1)c1ccncc1 (centres unmarked) [MLS001220669-01] | 1 | 0.9426 | 0.9016 | 0.9605 | 0.8701 | 0.7613 | 0.9722 | 0.978 | 1.0117 | 1.038 | 1.003 | 1.011 | 0.8274 | 0.7701 | 1.0114 | 1 | –
COc1ccc(CNC(=O)COC(=O)CCc2c[nH]c3ccccc23)cc1 [MLS001033202-01] | – | – | – | – | – | – | – | – | – | – | – | – | 0.9658 | 0.9933 | 0.8214 | 1.2 | Burkin Assay in Myoblasts, signal relative to DMSO ([1]; 0.5 uM): 0.6682; Burkin Assay in Myoblasts, signal relative to DMSO ([1]; 1 uM): 0.9153; Burkin Assay in Myoblasts, signal relative to DMSO ([1]; 5 uM): 0.9952; Burkin Assay in Myoblasts, signal relative to DMSO ([1]; 10 uM): 0.9282; Burkin Assay in Myoblasts, signal relative to DMSO ([1]; 20 uM): 0.8408; Burkin Assay in Myoblasts, signal relative to DMSO ([1]; 40 uM): 0.7704; Burkin Assay in Myotubes, α7 integrin LacZ reporter signal relative to DMSO ([2]; 0.5 uM): 1.057; Burkin Assay in Myotubes, α7 integrin LacZ reporter signal relative to DMSO ([2]; 1 uM): 1.019; Burkin Assay in Myotubes, α7 integrin LacZ reporter signal relative to DMSO ([2]; 5 uM): 1.042; Burkin Assay in Myotubes, α7 integrin LacZ reporter signal relative to DMSO ([2]; 10 uM): 1.0906; Burkin Assay in Myotubes, α7 integrin LacZ reporter signal relative to DMSO ([2]; 20 uM): 1.051; Burkin Assay in Myotubes, α7 integrin LacZ reporter signal relative to DMSO ([2]; 40 uM): 0.986
CN(C)S(=O)(=O)c1ccc(C(=O)Nc2nc3ccccc3[nH]2)cc1 [MLS000774940-01] | 0.9309 | 0.8928 | 1.095 | 1.043 | 0.858 | 0.7761 | 0.9469 | 0.9777 | 1.01 | 0.9908 | 1.084 | 0.878 | – | – | – | – | CMV-LACZ in Myotubes (β-galactosidase activity relative to DMSO) ([3]; 5 uM): 0.954; CMV-LACZ in Myotubes (β-galactosidase activity relative to DMSO) ([3]; 10 uM): 0.8604; CMV-LACZ in Myotubes (β-galactosidase activity relative to DMSO) ([3]; 20 uM): 1.171; CMV-LACZ in Myotubes (β-galactosidase activity relative to DMSO) ([3]; 40 uM): 1.005
NS(=O)(=O)c1ccc(NC(=O)c2cc(-c3ccccc3O)n[nH]2)cc1 [MLS001214443-01] | 0.9203 | 0.8074 | 0.7787 | 0.8173 | 0.9132 | 0.9313 | 0.8262 | 0.9018 | 0.9442 | 1.193 | 1.154 | 1.083 | – | – | – | – | CMV-LACZ in Myotubes (β-galactosidase activity relative to DMSO) ([3]; 5 uM): 0.9737; CMV-LACZ in Myotubes (β-galactosidase activity relative to DMSO) ([3]; 10 uM): 1.072; CMV-LACZ in Myotubes (β-galactosidase activity relative to DMSO) ([3]; 20 uM): 0.9507; CMV-LACZ in Myotubes (β-galactosidase activity relative to DMSO) ([3]; 40 uM): 0.9022
COc1ccccc1-c1coc2c(CN3C(C)CCCC3C)c(O)ccc2c1=O (centres unmarked) [MLS001163140-01] | 1.019 | 1.217 | 0.9966 | 1.098 | 0.935 | 0.9829 | 0.9236 | 1.035 | 0.9282 | 1.1264 | 0.9651 | 1.011 | 1.029 | 1.061 | 0.9159 | 1.19 | –
CS(=O)(=O)c1ccc(Cl)c(NC(=O)CSc2nncn2-c2ccccc2)c1 [MLS001177364-01] | – | – | – | – | – | – | – | – | – | – | – | – | 1.262 | 0.9578 | 1.053 | 0.9743 | Burkin Assay in Myoblasts, signal relative to DMSO ([1]; 0.5 uM): 1.082; Burkin Assay in Myoblasts, signal relative to DMSO ([1]; 1 uM): 0.9869; Burkin Assay in Myoblasts, signal relative to DMSO ([1]; 5 uM): 0.9655; Burkin Assay in Myoblasts, signal relative to DMSO ([1]; 10 uM): 0.9015; Burkin Assay in Myoblasts, signal relative to DMSO ([1]; 20 uM): 1.005; Burkin Assay in Myoblasts, signal relative to DMSO ([1]; 40 uM): 0.8386; Burkin Assay in Myotubes, α7 integrin LacZ reporter signal relative to DMSO ([2]; 0.5 uM): 1.036; Burkin Assay in Myotubes, α7 integrin LacZ reporter signal relative to DMSO ([2]; 1 uM): 0.9519; Burkin Assay in Myotubes, α7 integrin LacZ reporter signal relative to DMSO ([2]; 5 uM): 1.235; Burkin Assay in Myotubes, α7 integrin LacZ reporter signal relative to DMSO ([2]; 10 uM): 1.213; Burkin Assay in Myotubes, α7 integrin LacZ reporter signal relative to DMSO ([2]; 20 uM): 1.125; Burkin Assay in Myotubes, α7 integrin LacZ reporter signal relative to DMSO ([2]; 40 uM): 0.6717
COc1ccc(CCNC(=O)c2nn(C)c3c2CS(=O)(=O)c2ccccc2-3)cc1OC [MLS001117140-01] | – | – | – | – | – | – | – | – | – | – | – | – | – | – | – | – | fold induction at 0.5 µM ([1]; Mus musculus, Myoblast, 48 h, 0.5 uM, read-out: Burkin Assay in Myoblasts, signal relative to DMSO): 1.03; fold induction at 1 µM ([1]; Mus musculus, Myoblast, 48 h, 1 uM, read-out: Burkin Assay in Myoblasts, signal relative to DMSO): 1.07; fold induction at 5 µM ([1]; Mus musculus, Myoblast, 48 h, 5 uM, read-out: Burkin Assay in Myoblasts, signal relative to DMSO): 0.909; fold induction at 10 µM ([1]; Mus musculus, Myoblast, 48 h, 10 uM, read-out: Burkin Assay in Myoblasts, signal relative to DMSO): 0.901; fold induction at 20 µM ([1]; Mus musculus, Myoblast, 48 h, 20 uM, read-out: Burkin Assay in Myoblasts, signal relative to DMSO): 0.922; fold induction at 40 µM ([1]; Mus musculus, Myoblast, 48 h, 40 uM, read-out: Burkin Assay in Myoblasts, signal relative to DMSO): 0.942; fold induction at 0.5 µM ([2]; Mus musculus, Myotube, 0.5 uM, read-out: Burkin Assay in Myotubes, α7 integrin LacZ reporter signal relative to DMSO): 0.932; fold induction at 1 µM ([2]; Mus musculus, Myotube, 1 uM, read-out: Burkin Assay in Myotubes, α7 integrin LacZ reporter signal relative to DMSO): 1.12; fold induction at 5 µM ([2]; Mus musculus, Myotube, 5 uM, read-out: Burkin Assay in Myotubes, α7 integrin LacZ reporter signal relative to DMSO): 1.09; fold induction at 10 µM ([2]; Mus musculus, Myotube, 10 uM, read-out: Burkin Assay in Myotubes, α7 integrin LacZ reporter signal relative to DMSO): 1.37; fold induction at 20 µM ([2]; Mus musculus, Myotube, 20 uM, read-out: Burkin Assay in Myotubes, α7 integrin LacZ reporter signal relative to DMSO): 1.09; fold induction at 40 µM ([2]; Mus musculus, Myotube, 40 uM, read-out: Burkin Assay in Myotubes, α7 integrin LacZ reporter signal relative to DMSO): 1.06; fold induction at 5 µM ([3]; Mus musculus, C2C12, read-out: CMV-LACZ in Myotubes, signal relative to DMSO, 5 uM, C2C12 CMV-LacZ myotubes, fold relative to DMSO): 0.951; fold induction at 10 µM ([3]; Mus musculus, C2C12, read-out: CMV-LACZ in Myotubes, signal relative to DMSO, 10 uM, C2C12 CMV-LacZ myotubes, fold relative to DMSO): 1.12; fold induction at 20 µM ([3]; Mus musculus, C2C12, read-out: CMV-LACZ in Myotubes, signal relative to DMSO, 20 uM, C2C12 CMV-LacZ myotubes, fold relative to DMSO): 1.38; fold induction at 40 µM ([3]; Mus musculus, C2C12, read-out: CMV-LACZ in Myotubes, signal relative to DMSO, 40 uM, C2C12 CMV-LacZ myotubes, fold relative to DMSO): 1.17
